We go through three molecules from US5595903A (priority 1989, dated 1997).

Test [1] concerns the target T1, AChE (Homo sapiens, UniProt P22303). Put plainly: biochemical. It counts as biochemical.
The target of test [2] is T1, AChE. The format is biochemical.
Test [3] concerns the target ChE (Homo sapiens, UniProt P06276). The format is biochemical.
The conditions of test [4]: human, in vivo; cited from earlier work.

T1 sequence (P22303 32-614): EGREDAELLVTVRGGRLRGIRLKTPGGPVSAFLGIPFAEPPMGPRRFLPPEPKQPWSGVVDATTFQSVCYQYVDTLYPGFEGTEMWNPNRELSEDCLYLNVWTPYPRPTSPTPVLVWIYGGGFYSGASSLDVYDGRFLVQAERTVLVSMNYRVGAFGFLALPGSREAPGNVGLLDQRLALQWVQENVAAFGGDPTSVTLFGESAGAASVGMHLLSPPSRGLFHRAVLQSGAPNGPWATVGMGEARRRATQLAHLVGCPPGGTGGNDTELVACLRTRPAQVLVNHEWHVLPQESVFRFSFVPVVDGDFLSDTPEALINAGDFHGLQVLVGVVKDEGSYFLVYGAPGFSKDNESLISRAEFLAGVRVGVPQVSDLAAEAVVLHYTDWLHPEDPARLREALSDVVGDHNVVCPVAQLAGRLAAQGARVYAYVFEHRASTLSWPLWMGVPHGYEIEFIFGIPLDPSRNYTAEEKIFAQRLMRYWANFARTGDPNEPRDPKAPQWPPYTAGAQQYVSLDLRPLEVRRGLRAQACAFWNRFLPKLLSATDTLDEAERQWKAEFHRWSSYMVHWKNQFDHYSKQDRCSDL

In test [1], `C=CC[N+](C)(C)c1ccc(CCC(=O)CCc2ccc([N+](C)(C)CC=C)cc2)cc1` [BW284C51, 1,5-bis-(4-allyldimethylammoniumphenyl)-pentan-3-one dibromide] returned an AcThCho degraded of 3 ± 1 pmol/hr per ng mRNA and a remaining activity at 10 µM of 1 ± 0.3%. Moreover, the “sensitivity of tumor mRNA-induced AChE activity to selective inhibitor” value in test [2] was “sensitive”.

Consider `CC(C)NP(=O)(NC(C)C)OP(=O)(NC(C)C)NC(C)C` [iso-OMPA, tetraisopropylpyrophosphoramide], for which, in test [1], the AcThCho degraded is on record as 280 ± 10 pmol/hr per ng mRNA, the remaining activity at 10 µM was found to be 98 ± 3% and the “sensitivity of oocyte-produced enzyme to inhibition (in words)” value is given as “totally insensitive”. In addition, the “sensitivity of tumor mRNA-induced ChE activity to selective inhibitor” value in test [3] is given as “sensitive”.

B1: BuChE from human serum: Purified BuChE from human serum (protein, UniProt P06276 29-602, looked up)
Cholinesterase: EDDIIIATKNGKVRGMNLTVFGGTVTAFLGIPYAQPPLGRLRFKKPQSLTKWSDIWNATKYANSCCQNIDQSFPGFHGSEMWNPNTDLSEDCLYLNVWIPAPKPKNATVLIWIYGGGFQTGTSSLHVYDGKFLARVERVIVVSMNYRVGALGFLALPGNPEAPGNMGLFDQQLALQWVQKNIAAFGGNPKSVTLFGESAGAASVSLHLLSPGSHSLFTRAILQSGSFNAPWAVTSLYEARNRTLNLAKLTGCSRENETEIIKCLRNKDPQEILLNEAFVVPYGTPLSVNFGPTVDGDFLTDMPDILLELGQFKKTQILVGVNKDEGTAFLVYGAPGFSKDNNSIITRKEFQEGLKIFFPGVSEFGKESILFHYTDWVDDQRPENYREALGDVVGDYNFICPALEFTKKFSEWGNNAFFYYFEHRSSKLPWPEWMGVMHGYEIEFVFGLPLERRDNYTKAEEILSRSIVKRWANFAKYGNPNETQNNSTSWPVFKSTEQKYLTLNTESTRIMTKLRAQQCRFWTSFFPKVLEMTGNIDEAEWEWKAGFHRWNNYMMDWKNQFNDYTSKKESCVGL
For the molecule B1, the “effect on symptoms of OP-intoxicated patients” value in test [4] is on record as “improve the symptoms”.
